Experimental data reported in patent publication US5698710A, “Tachykinins antagonists” (A. Menarini Industrie Farmaceutiche Riunite S.r.l., priority 1994, dated 1997).

These molecules were tested against T1, NK1 receptors (Homo sapiens, UniProt P25103) (assay: [^3 H]SP Binding Assay in IM9 Cell Line (competition)). Conditions: intact IM9 cells; 0.3 nM [^3 H]SP; 60' at room temperature; pH 7.5.
T1 construct: endogenous in cells; host or cells: IM9 cells (intact)
Protocol: The evaluation of the antagonist acivity of NK1 receptors was performed with binding and functional tests.
The assay was carried out on intact cells as described by Payan et al. (1984). The cells were washed with buffer A at pH 7.5 containing (in mM) Tris-HCl 50, NaCl 150 and 0.02% BSA, thereafter were resuspended in a dosage buffer (buffer A added with protease inhibitors), concentration 1×10^7 cells/ml. […] The non-specific binding was calculated in the presence of […] of non-radioactive SP. The dosage mixture was poured in test tubes for microcentrifugation which were preadsorbed in a solution of BSA 0.5% for at least 3 hours. […] The affinity was measured as pKi.

T1 sequence (P25103 whole entry): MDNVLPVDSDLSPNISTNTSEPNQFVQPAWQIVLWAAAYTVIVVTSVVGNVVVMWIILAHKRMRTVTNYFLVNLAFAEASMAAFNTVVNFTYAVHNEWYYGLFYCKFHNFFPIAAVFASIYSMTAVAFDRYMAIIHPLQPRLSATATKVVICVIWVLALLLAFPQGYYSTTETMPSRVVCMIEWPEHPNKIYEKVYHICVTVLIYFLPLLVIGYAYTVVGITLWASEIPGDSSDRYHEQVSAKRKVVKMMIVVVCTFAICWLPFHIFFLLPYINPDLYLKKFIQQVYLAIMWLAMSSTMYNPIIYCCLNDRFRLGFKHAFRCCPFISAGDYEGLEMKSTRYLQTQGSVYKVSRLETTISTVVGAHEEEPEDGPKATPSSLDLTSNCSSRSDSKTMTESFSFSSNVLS

Q: Which “Affinity (pKi) in the IM9 binding test” value does the source give for `CN(Cc1ccccc1)C(=O)C(Cc1ccc2ccccc2c1)NC(=O)C1(NC(=O)c2c[nH]c3ccccc23)CCC(O)CC1` (stereo not drawn) [xviii, N-[N(1(H)indol-3-yl-carbonyl)-1-amino-cis-4-hydrohy-cyclohexancarbonyl]-2-(2-naphthyl)alanine-N-methyl-N-benzylamide] here?
A: 8.3

Q: Which “Affinity (pKi) in the IM9 binding test” value does the source give for `COCCOCOC1CCC(NC(=O)c2c[nH]c3ccccc23)(C(=O)NC(Cc2ccccc2)C(=O)N(C)Cc2ccccc2)CC1` (stereo not drawn) [xxv, N-[N(1(H)indol-3-yl-carbonyl)-1-amino-cis-4-methoxyethoxymethoxyl-cyclohexancarbonyl]-phenylalanine-N-methyl-N-benzylamide] here?
A: 7.6

Same assay, conditions: read-out: Affinity (pKi) in the IM9 binding test (converted)

Q: With `COc1ccc(CC(NC(=O)C2(NC(=O)c3c[nH]c4ccccc34)CCCCC2)C(=O)N(C)Cc2ccccc2)cc1` (centres unmarked) [N-[N(1(H)indol-3-yl-carbonyl)-1-amino-cyclohexancarbonyl]-4-methoxyphenylalanine-N-methyl-N-benzylamide] as the molecule, how does the Ki read?
A: 3.98 nM

Q: Which Ki does the source give for `CN(Cc1ccccc1)C(=O)C(Cc1ccc2ccccc2c1)NC(=O)C1(NC(=O)c2cn(C)c3ccccc23)CCCCC1` (centres unmarked) [N-[N(1(methyl)indol-3-yl-carbonyl)-1-amino-cyclohexancarbonyl]-2-)2-naphthyl)alanine-N-methyl-N-benzylamide] here?
A: 15.8 nM

Q: Which Ki does the source give for `CN(Cc1ccccc1)C(=O)C(Cc1ccc([N+](=O)[O-])cc1)NC(=O)C1(NC(=O)c2c[nH]c3ccccc23)CCCCC1` (centres unmarked) [N-[N(1(H)indol-3-yl-carbonyl)-1-amino-cyclohexancarbonyl]-4-nitrophenylalanine-N-methyl-N-benzylamide] here?
A: 20 nM

Q: With `COc1ccc(CC(NC(=O)C2(NC(=O)c3c[nH]c4ccccc34)CCCC2)C(=O)N(C)Cc2ccccc2)cc1` (centres unmarked) [N-[N(1(H)indol-3-yl-carbonyl)-1-amino-cyclopentancarbonyl]-4-methyoxyphenylalanine-N-methyl-N-benzylamide] as the molecule, how does the Ki read?
A: 794 nM

Q: How did the Ki turn out when `CN(Cc1ccccc1)C(=O)C(Cc1ccccc1)NC(=O)C1(NC(=O)c2c[nH]c3ccccc23)CCCC1` (centres unmarked) [N-[N(1(H)indol-3-yl-carbonyl)-1-amino-cyclopentancarbonyl]-phenylalanine-N-methyl-N-benzylamide] was run?
A: 158 nM

Q: How did the Ki turn out when `O=C(Cc1ccccc1)NC(Cc1ccc2ccccc2c1)NC(=O)C1(NC(=O)c2c[nH]c3ccccc23)CCCCC1` (centres unmarked) [ii, 1-[N(1(H)indol-3-yl-carbonyl)-1-amino-cyclohexancarbonyl]-amino-1[N-(2-phenylacetyl)amino]-2-(2-naphthyl)ethane] was run?
A: 15.8 nM

Q: How did the Ki turn out when `CN(Cc1ccccc1)C(=O)C(Cc1ccccc1)NC(=O)C1(NC(=O)c2c[nH]c3ccccc23)CCCCC1` (centres unmarked) [N-[N(1(H)indol-3-yl-carbonyl)-1-amino-cyclohexancarbonyl]-phenylalanine-N-methyl-N-benzylamide] was run?
A: 178 nM

Q: `CN(Cc1ccccc1)C(=O)C(Cc1ccc(O)cc1)NC(=O)C1(NC(=O)c2c[nH]c3ccccc23)CCCCC1` (centres unmarked) [N-[N(1(H)indol-3-yl-carbonyl)-1-amino-cyclohexancarbonyl]-tyrosine-N-methyl-N-benzylamide] was tested. Which Ki did it give?
A: 20 nM

Q: Which Ki does the source give for `CN(Cc1ccccc1)C(=O)C(Cc1ccc2ccccc2c1)NC(=O)C1(NC(=O)c2c[nH]c3ccccc23)CCCC1` (centres unmarked) [N-[N(1(H)indol-3-yl-carbonyl)-1-amino-cyclopentancarbonyl]-2-(2-naphthyl)alanine-N-methyl-N-benzylamide] here?
A: 2.51 nM

Q: How did the Ki turn out when `CN(Cc1ccccc1)C(=O)C(Cc1ccc2ccccc2c1)NC(=O)C1(NC(=O)c2ccc(Cl)c(Cl)c2)CCCCC1` (centres unmarked) [N-[N(3,4-dichloro-benzoyl)-1-amino-cyclohexancarbonyl]-2-(2-naphthyl)alanine-N-methyl-N-benzylamide] was run?
A: 7.94 nM

Q: For `CN(Cc1ccccc1)C(=O)C(Cc1ccc2ccccc2c1)NC(=O)C1(NC(=O)c2ccccc2)CCCCC1` (centres unmarked) [N-[N(benzoyl)-1-amino-cyclohexancarbonyl]-2-(2-naphthyl)alanine-N-methyl-N-benzylamide], which Ki is on record?
A: 15.8 nM

Q: Which Ki does the source give for `CN(Cc1ccccc1)C(=O)C(Cc1ccc2ccccc2c1)NC(=O)C1(NC(=O)c2cc3ccccc3o2)CCCCC1` (centres unmarked) [N-[N(benzofuran-2-yl-carbonyl)-1-aminocyclohexancarbonyl]-2-(2-naphthyl)alanine-N-methyl-N-benzylamide] here?
A: 44.7 nM

Q: `CN(Cc1ccccc1)C(=O)C(Cc1ccc2ccccc2c1)NC(=O)C1(NC(=O)c2c[nH]c3ccccc23)CCOCC1` (centres unmarked) [xxvii, N-[N(1(H)indol-3-yl-carbonyl)-4-amino-tetrahydropyran-4-carbonyl]-2-naphthylalanine-N-methyl-N-benzylamide] was tested. Which Ki did it give?
A: 6.31 nM

Q: Which Ki does the source give for `CN(C(=O)Cc1ccccc1)C(Cc1ccc2ccccc2c1)NC(=O)C1(NC(=O)c2c[nH]c3ccccc23)CCNCC1` (centres unmarked) [xxviii, 1-N-[N(1(H)indol-3-yl-carbonyl)-4-amino-piperidin-4-carbonyl]-amino-1-[N(methyl)-N-(2-phenylacetyl)]amino-2-(2-naphtyl)ethane] here?
A: 12.6 nM

Q: How did the Ki turn out when `CN(Cc1ccccc1)C(=O)C(Cc1ccc2ccccc2c1)NC(=O)C1(NC(=O)c2c[nH]c3ccccc23)CCNCC1` (centres unmarked) [N-[N(1(H)indol-3-yl-carbonyl)-4-amino-piperidin-4-carbonyl]-2-(2-naphthyl)alanine-N-methyl-N-benzylamide] was run?
A: 12.6 nM

Q: `CN(Cc1ccccc1)C(=O)[C@H](Cc1ccc2ccccc2c1)NC(=O)C1(NC(=O)c2c[nH]c3ccccc23)CCCCC1` [Example, N^α [N-(1(H)indol-3-yl-carbonyl)-1-amino-cyclohexan-carbonyl]-L-2-naphthylalanine-N-methyl-N-benzylamide] was tested. Which Ki did it give?
A: 1 nM

Q: For `CN(Cc1ccccc1)C(=O)C(Cc1ccc2ccccc2c1)NC(=O)C1(NC(=O)c2ccc([N+](=O)[O-])cc2)CCCCC1` (centres unmarked) [N-[N(4-nitro-benzoyl)-1-amino-cyclohexancarbonyl]-2-(2-naphthyl)alanine-N-methyl-N-benzylamide], which Ki is on record?
A: 5.01 nM

Q: For `CN(Cc1ccccc1)C(=O)C(Cc1ccc2ccccc2c1)NC(=O)C1(NC(=O)c2c[nH]c3ccccc23)CCSCC1` (centres unmarked) [N-[N(1(H)indol-3-yl-carbonyl)-4-amino-tetrahydrothiopyran-4-carbonyl]-2-(2-naphthyl)alanine-N-methyl-N-benzylamide], which Ki is on record?
A: 5.01 nM

Q: Which Ki does the source give for `CN(Cc1ccccc1)C(=O)C(Cc1ccc2ccccc2c1)NC(=O)C1(NC(=O)c2ccc(Cl)cc2)CCCCC1` (centres unmarked) [N-[N(4-chloro-benzoyl)-1-amino-cyclohexancarbonyl]-2-(2-naphthyl)alanine-N-methyl-N-benzylamide] here?
A: 10 nM

Q: With `COc1ccc(C(=O)NC2(C(=O)NC(Cc3ccc4ccccc4c3)C(=O)N(C)Cc3ccccc3)CCCCC2)cc1` (centres unmarked) [N-[N(4-methoxy-benzoyl)-1-amino-cyclohexancarbonyl]-2-(2-naphthyl)alanine-N-methyl-N-benzylamide] as the molecule, how does the Ki read?
A: 20 nM

Q: With `CN(Cc1ccccc1)C(=O)C(Cc1ccc2ccccc2c1)NC(=O)C1(N(C)C(=O)c2cn(C)c3ccccc23)CCCCC1` (centres unmarked) [xii, N-[N(1(methyl)indol-3-yl-carbonyl)-N-methyl-1-amino-cyclohexancarbonyl]-2 naphthylalanine-N-methyl-N-benzylamide] as the molecule, how does the Ki read?
A: 15.8 nM
